# Laboratory results from patent publication US20230365553A1, “COMPOUNDS AND COMPOSITIONS FOR TREATING CONDITIONS ASSOCIATED WITH STING ACTIVITY” (IFM Due, Inc., priority 2020, published 2023).
# Molecular target: T1, STING (Homo sapiens, UniProt Q86WV6, G230A/H232R/R293Q/R71H)
# T1 construct: host or cells: THP1-Dual KO-IFNAR2 cells
# Assay: STING reporter assay: luciferase reporter activity in THP1-Dual KO-IFNAR2 cells stimulated with 2′3′cGAMP
# Assay type: cell-based
# Conditions: 15 μM 2′3′cGAMP, 24h, read-out: hSTING EC50
# Summary of the method: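 THP1-Dual KO-IFNAR2 cells (2×10E6 cells/mL) were exposed to compounds at 0.0017-100 μM, then stimulated with 2′3′cGAMP (15 μM final) transfected via Lipofectamine 2000. After 24h at 37° C., secreted luciferase in supernatant was read by QUANTI-Luc luminescence; EC50 derived from concentration-response.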
# T1 sequence (Q86WV6 whole entry R71H/G230A/H232R/R293Q): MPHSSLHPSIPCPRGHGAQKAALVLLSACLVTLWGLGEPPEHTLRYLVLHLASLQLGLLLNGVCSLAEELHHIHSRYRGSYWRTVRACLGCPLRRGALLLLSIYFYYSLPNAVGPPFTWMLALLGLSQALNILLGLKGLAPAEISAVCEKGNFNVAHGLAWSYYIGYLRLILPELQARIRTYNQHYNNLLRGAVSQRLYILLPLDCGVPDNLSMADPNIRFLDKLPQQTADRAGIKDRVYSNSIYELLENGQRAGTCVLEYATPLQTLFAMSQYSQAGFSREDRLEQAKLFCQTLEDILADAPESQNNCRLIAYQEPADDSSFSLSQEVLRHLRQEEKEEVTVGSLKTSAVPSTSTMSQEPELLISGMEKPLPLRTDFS
row,SMILES,EC50 [nM]
1,"CN1CC(C(=O)Nc2c[nH]c3ccc(-c4cnn(-c5ccc(C(F)(F)F)cc5)c4)cc23)C1=O (stereo not drawn) [Compound 205, 1-methyl-2-oxo-N-(5-(1-(4-(trifluoromethyl)phenyl)-1H-pyrazol-4-yl)-1H-indol-3-yl)azetidine-3-carboxamide]",1000 to 5000
2,"COCCOCCC(=O)Nc1c[nH]c2ccc(-c3cnn(-c4ccc(C(F)(F)F)cc4)c3)cc12 [Compound 206, 3-(2-methoxyethoxy)-N-(5-(1-(4-(trifluoromethyl)phenyl)-1H-pyrazol-4-yl)-1H-indol-3-yl)propanamide]",200 to 1000
3,"O=C(COCC(F)(F)F)Nc1c[nH]c2ccc(-c3cnn(-c4ccc(C(F)(F)F)cc4)c3)cc12 [Compound 207, 2-(2,2,2-trifluoroethoxy)-N-(5-(1-(4-(trifluoromethyl)phenyl)-1H-pyrazol-4-yl)-1H-indol-3-yl)acetamide]",200 to 1000
4,"CC(=O)NCC(C)(C)C(=O)Nc1c[nH]c2ccc(-c3cnn(-c4ccc(C(F)(F)F)cc4)c3)cc12 [Compound 208, 3-acetamido-2,2-dimethyl-N-(5-(1-(4-(trifluoromethyl)phenyl)-1H-pyrazol-4-yl)-1H-indol-3-yl)propanamide]",1000 to 5000
5,"CN1C(=O)CC[C@H]1C(=O)Nc1c[nH]c2ccc(-c3cnn(-c4ccc(C(F)(F)F)cc4)c3)cc12 [Compound 209, (S)-1-methyl-5-oxo-N-(5-(1-(4-(trifluoromethyl)phenyl)-1H-pyrazol-4-yl)-1H-indol-3-yl)pyrrolidine-2-carboxamide]",5000 to 100000
6,"CN1CCC(C(=O)Nc2c[nH]c3ccc(-c4cnn(-c5ccc(C(F)(F)F)cc5)c4)cc23)C1=O (stereo not drawn) [Compound 211, 1-methyl-2-oxo-N-(5-(1-(4-(trifluoromethyl)phenyl)-1H-pyrazol-4-yl)-1H-indol-3-yl)pyrrolidine-3-carboxamide]",1000 to 5000
7,"O=C(COC(F)(F)F)Nc1c[nH]c2ccc(-c3cnn(-c4ccc(C(F)(F)F)cc4)c3)cc12 [Compound 212, 2-(trifluoromethoxy)-N-(5-(1-(4-(trifluoromethyl)phenyl)-1H-pyrazol-4-yl)-1H-indol-3-yl)acetamide]",200 to 1000
8,"O=C(CCC(F)(F)F)Nc1c[nH]c2ccc(-c3cnn(-c4ccc(C(F)(F)F)cc4)c3)cc12 [Compound 214, 4,4,4-trifluoro-N-(5-(1-(4-(trifluoromethyl)phenyl)-1H-pyrazol-4-yl)-1H-indol-3-yl)butanamide]",200 to 1000
9,"CC(=O)NC(C)C(=O)Nc1c[nH]c2ccc(-c3cnn(-c4ccc(C(F)(F)F)cc4)c3)cc12 (stereo not drawn) [Compound 215, 2-acetamido-N-(5-(1-(4-(trifluoromethyl)phenyl)-1H-pyrazol-4-yl)-1H-indol-3-yl)propanamide]",1000 to 5000
10,"COCCOCC(=O)Nc1c[nH]c2ccc(-c3cnn(-c4ccc(C(F)(F)F)cc4)c3)cc12 [Compound 217, 2-(2-methoxyethoxy)-N-(5-(1-(4-(trifluoromethyl)phenyl)-1H-pyrazol-4-yl)-1H-indol-3-yl)acetamide]",200 to 1000
11,"CC(=O)NC(C(=O)Nc1c[nH]c2ccc(-c3cnn(-c4ccc(C(F)(F)F)cc4)c3)cc12)C(C)C (stereo not drawn) [Compound 218, 2-acetamido-3-methyl-N-(5-(1-(4-(trifluoromethyl)phenyl)-1H-pyrazol-4-yl)-1H-indol-3-yl)butanamide]",1000 to 5000
12,"CC(=O)N1CC(C(=O)Nc2c[nH]c3ccc(-c4cnn(-c5ccc(C(F)(F)F)cc5)c4)cc23)C1 [Compound 223, 1-acetyl-N-(5-(1-(4-(trifluoromethyl)phenyl)-1H-pyrazol-4-yl)-1H-indol-3-yl)azetidine-3-carboxamide]",1000 to 5000
13,"CC(=O)N(C)CC(=O)Nc1c[nH]c2ccc(-c3cnn(-c4ccc(C(F)(F)F)cc4)c3)cc12 [Compound 225, N-methyl-N-(2-oxo-2-((5-(1-(4-(trifluoromethyl)phenyl)-1H-pyrazol-4-yl)-1H-indol-3-yl)amino)ethyl)acetamide]",1000 to 5000
14,"CC(=O)N1CCCC1C(=O)Nc1c[nH]c2ccc(-c3cnn(-c4ccc(C(F)(F)F)cc4)c3)cc12 (stereo not drawn) [Compound 226, 1-acetyl-N-(5-(1-(4-(trifluoromethyl)phenyl)-1H-pyrazol-4-yl)-1H-indol-3-yl)pyrrolidine-2-carboxamide]",1000 to 5000
15,"CN1CCC(C(=O)Nc2c[nH]c3ccc(-c4cnn(-c5ccc(C(F)(F)F)cc5)c4)cc23)CC1=O (stereo not drawn) [Compound 231, 1-methyl-2-oxo-N-(5-(1-(4-(trifluoromethyl)phenyl)-1H-pyrazol-4-yl)-1H-indol-3-yl)piperidine-4-carboxamide]",1000 to 5000
16,"O=C1CCC(C(=O)Nc2c[nH]c3ccc(-c4cnn(-c5ccc(C(F)(F)F)cc5)c4)cc23)=NN1 [Compound 234, 6-oxo-N-(5-(1-(4-(trifluoromethyl)phenyl)-1H-pyrazol-4-yl)-1H-indol-3-yl)-1,4,5,6-tetrahydropyridazine-3-carboxamide]",1000 to 5000

# Now from value to compound:
row,EC50 [nM],SMILES
1,5000 to 100000,"O=C1NCCC1C(=O)Nc1c[nH]c2ccc(-c3cnn(-c4ccc(C(F)(F)F)cc4)c3)cc12 (stereo not drawn) [Compound 210, 2-oxo-N-(5-(1-(4-(trifluoromethyl)phenyl)-1H-pyrazol-4-yl)-1H-indol-3-yl)pyrrolidine-3-carboxamide]"
2,200 to 1000,"O=C(Nc1c[nH]c2ccc(-c3cnn(-c4ccc(C(F)(F)F)cc4)c3)cc12)C1CS(=O)(=O)C1 [Compound 213, N-(5-(1-(4-(trifluoromethyl)phenyl)-1H-pyrazol-4-yl)-1H-indol-3-yl)thietane-3-carboxamide 1,1-dioxide]"
3,1000 to 5000,"CC(C)(C)C(=O)Nc1c[nH]c2ccc(-c3cnn(-c4ccc(C(F)(F)F)cc4)c3)cc12 [Compound 216, N-(5-(1-(4-(trifluoromethyl)phenyl)-1H-pyrazol-4-yl)-1H-indol-3-yl)pivalamide]"
4,1000 to 5000,"O=C1CC(C(=O)Nc2c[nH]c3ccc(-c4cnn(-c5ccc(C(F)(F)F)cc5)c4)cc23)CCN1 (stereo not drawn) [Compound 219, 2-oxo-N-(5-(1-(4-(trifluoromethyl)phenyl)-1H-pyrazol-4-yl)-1H-indol-3-yl)piperidine-4-carboxamide]"
5,5000 to 100000,"N#CC1(C(=O)Nc2c[nH]c3ccc(-c4cnn(-c5ccc(C(F)(F)F)cc5)c4)cc23)CCOCC1 [Compound 220, 4-cyano-N-(5-(1-(4-(trifluoromethyl)phenyl)-1H-pyrazol-4-yl)-1H-indol-3-yl)tetrahydro-2H-pyran-4-carboxamide]"
6,1000 to 5000,"O=C1CCC[C@@H](C(=O)Nc2c[nH]c3ccc(-c4cnn(-c5ccc(C(F)(F)F)cc5)c4)cc23)N1 [Compound 221, (S)-6-oxo-N-(5-(1-(4-(trifluoromethyl)phenyl)-1H-pyrazol-4-yl)-1H-indol-3-yl)piperidine-2-carboxamide]"
7,1000 to 5000,"CC1(C(=O)Nc2c[nH]c3ccc(-c4cnn(-c5ccc(C(F)(F)F)cc5)c4)cc23)CCOCC1 [Compound 222, 4-methyl-N-(5-(1-(4-(trifluoromethyl)phenyl)-1H-pyrazol-4-yl)-1H-indol-3-yl)tetrahydro-2H-pyran-4-carboxamide]"
8,1000 to 5000,"CN1CC(C(=O)Nc2c[nH]c3ccc(-c4cnn(-c5ccc(C(F)(F)F)cc5)c4)cc23)CCC1=O (stereo not drawn) [Compound 224, 1-methyl-6-oxo-N-(5-(1-(4-(trifluoromethyl)phenyl)-1H-pyrazol-4-yl)-1H-indol-3-yl)piperidine-3-carboxamide]"
9,1000 to 5000,"COC(C)C(=O)Nc1c[nH]c2ccc(-c3cnn(-c4ccc(C(F)(F)F)cc4)c3)cc12 (stereo not drawn) [Compound 227, 2-methoxy-N-(5-(1-(4-(trifluoromethyl)phenyl)-1H-pyrazol-4-yl)-1H-indol-3-yl)propanamide]"
10,1000 to 5000,"CC(C)(C#N)C(=O)Nc1c[nH]c2ccc(-c3cnn(-c4ccc(C(F)(F)F)cc4)c3)cc12 [Compound 228, 2-cyano-2-methyl-N-(5-(1-(4-(trifluoromethyl)phenyl)-1H-pyrazol-4-yl)-1H-indol-3-yl)propanamide]"
11,1000 to 5000,"N#CC1(C(=O)Nc2c[nH]c3ccc(-c4cnn(-c5ccc(C(F)(F)F)cc5)c4)cc23)CCC1 [Compound 229, 1-cyano-N-(5-(1-(4-(trifluoromethyl)phenyl)-1H-pyrazol-4-yl)-1H-indol-3-yl)cyclobutane-1-carboxamide]"
12,5000 to 100000,"CC1=NOC(C)(C(=O)Nc2c[nH]c3ccc(-c4cnn(-c5ccc(C(F)(F)F)cc5)c4)cc23)C1 (stereo not drawn) [Compound 230, 3,5-dimethyl-N-(5-(1-(4-(trifluoromethyl)phenyl)-1H-pyrazol-4-yl)-1H-indol-3-yl)-4,5-dihydroisoxazole-5-carboxamide]"
13,200 to 1000,"CC1(C(=O)Nc2c[nH]c3ccc(-c4cnn(-c5ccc(C(F)(F)F)cc5)c4)cc23)COC1 [Compound 232, 3-methyl-N-(5-(1-(4-(trifluoromethyl)phenyl)-1H-pyrazol-4-yl)-1H-indol-3-yl)oxetane-3-carboxamide]"
14,200 to 1000,"O=C(Nc1c[nH]c2ccc(-c3cnn(-c4ccc(C(F)(F)F)cc4)c3)cc12)C1(F)CCOCC1 [Compound 233, 4-fluoro-N-(5-(1-(4-(trifluoromethyl)phenyl)-1H-pyrazol-4-yl)-1H-indol-3-yl)tetrahydro-2H-pyran-4-carboxamide]"
15,1000 to 5000,"N#CC1(C(=O)Nc2c[nH]c3ccc(-c4cnn(-c5ccc(C(F)(F)F)cc5)c4)cc23)CC1 [Compound 235, 1-cyano-N-(5-(1-(4-(trifluoromethyl)phenyl)-1H-pyrazol-4-yl)-1H-indol-3-yl)cyclopropane-1-carboxamide]"
16,200 to 1000,"O=C(Nc1c[nH]c2ccc(-c3cnn(-c4ccc(C(F)(F)F)cc4)c3)cc12)C1CC(F)(F)C1 [Compound 236, 3,3-difluoro-N-(5-(1-(4-(trifluoromethyl)phenyl)-1H-pyrazol-4-yl)-1H-indol-3-yl)cyclobutane-1-carboxamide]"
17,200 to 1000,"O=C(Nc1c[nH]c2ccc(-c3cnn(-c4ccc(C(F)(F)F)cc4)c3)cc12)C1CCC(F)(F)CC1 [Compound 237, 4,4-difluoro-N-(5-(1-(4-(trifluoromethyl)phenyl)-1H-pyrazol-4-yl)-1H-indol-3-yl)cyclohexane-1-carboxamide]"
